From patent US20100256357A1, “HETEROCYCLES USEFUL AS INHIBITORS OF CARBONIC ANHYDRASE” (Agouron Pharmaceuticals, Inc., priority 2006, published 2010)
Like-named read-outs stand apart in the source and are kept apart here.

Assays:
CAI = CAI (Homo sapiens, UniProt P00915); test: CAI IC50 (no method described); format: biochemical
human CA-II [1] = molecular target: T1, human CA-II (Homo sapiens, UniProt P00918); test: Carbonic Anhydrase-II (CA-II) Fluorescence Polarization Tight Binding Assay-Kd Determination
T1 construct: purchased Sigma-Aldrich C6165
Experimental: Assays were conducted in a final volume of 100 μL in 50 mM Tris/HCl (pH 7.6), 100 mM Na2SO4 and 0.005% Tween-20 in a 96-well black assay plate. […] The assay plate was
The Kd binding was calculated using GraphPad Prism and Morrison tight binding ligand equation.

human CA-IV = molecular target: T2, human CA-IV (Homo sapiens, UniProt P22748); test: Carbonic Anhydrase-IV (CA-IV) Fluorescence Polarization Assay-IC50 Determination; format: binding
T2 construct: made in house; host or cells: Escherichia coli BL21(DE3)
T2 sequence (P22748 19-284 limits assumed): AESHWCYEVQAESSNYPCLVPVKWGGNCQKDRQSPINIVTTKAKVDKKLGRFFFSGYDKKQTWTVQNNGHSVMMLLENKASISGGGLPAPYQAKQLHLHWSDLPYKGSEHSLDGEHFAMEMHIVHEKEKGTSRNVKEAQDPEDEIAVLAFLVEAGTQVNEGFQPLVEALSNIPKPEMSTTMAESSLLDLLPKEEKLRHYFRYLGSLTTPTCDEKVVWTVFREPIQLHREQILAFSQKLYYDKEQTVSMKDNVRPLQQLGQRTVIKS
Procedure, shortened: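 IC50 values come from a fluorescence polarization read-out. The CA-IV protein was zinc-supplemented during expression and purified by cation exchange then gel filtration, ending in 25 mM Tris-HCl pH 7.0 with 100 mM NaCl at 7.0 mg/mL.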

human CA-IX = molecular target: T3, human CA-IX (Homo sapiens, UniProt Q16790); test: Carbonic Anhydrase-IX (CA-IX) Fluorescence Polarization Assay-IC50 Determination; format: binding; settings: read-out: CAIX IC50
T3 construct: purchased R&D Systems Inc. 2188-CA-010
Experimental: Carbonic Anhydrase-IX (CA-IX) Fluorescence Polarization Assay-IC50 Determination
Compounds were diluted in DMSO at the concentration of 1 mM, then 50 μM and transferred to a 96-well plate for further dilutions (1:3 dilution, 11 points) in duplicate. Final compound highest concentration in CA-IX FP assay is 1 μM. Assays were conducted in a final volume of 100 μL in 50 mM Tris/HCl (pH 7.6), 100 mM Na2SO4 and 0.005% Tween-20 in a 96-well black assay. plate. […] was used as the tracer. Binding inhibition was determined by pipetting 8 μL of human CA-IX (8 nM, R&D Systems Inc. Cat#2188-CA-010) into assay plate contained 2 μL of compound and 2 μL of tracer (2 nM) in 88 μL of assay buffer. The assay plate was incubated at room temperature for 30 minutes and read in the fluorescence polarization reader (Molecular Devices, Analyst) at 524/45 nm (excitation), 595/60 nm (emission) and 561 nm (bean splitter). […] GraphPad Prism or similar in-house software with the IC50 curve fitting using the four parameter logistic equation.

human CA-II [2] = molecular target: T1, human CA-II; test: Carbonic Anhydrase-II (CA-II) Fluorimetric Assay-IC50 Determination; format: biochemical
Procedure, shortened: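 Enzyme activity is read fluorimetrically at 25° C (ex 488 nm / em 538 nm) as the rate at which human CA-II hydrolyses fluorescein diacetate. The buffer is Tris/HCl (50 mM, pH 7.6) with 100 mM Na2SO4 and 0.005% Tween-20. Inhibitors run in duplicate over 11 threefold dilutions, […]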

Chain of CAI (P00915 whole entry, species assumed): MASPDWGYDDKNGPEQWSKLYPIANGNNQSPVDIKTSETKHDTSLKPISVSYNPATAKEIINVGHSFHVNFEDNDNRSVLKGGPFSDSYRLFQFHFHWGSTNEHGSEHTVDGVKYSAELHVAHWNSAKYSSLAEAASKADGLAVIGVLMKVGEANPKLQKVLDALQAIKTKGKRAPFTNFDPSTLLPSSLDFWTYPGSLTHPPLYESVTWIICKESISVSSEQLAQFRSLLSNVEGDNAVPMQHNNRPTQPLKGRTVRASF

SMILES	IC50 (CAI) [nM]	Kd (human CA-II [1]; read-out: Kd_CAII) [nM]	IC50 (human CA-IV; read-out: IC50_CAIV) [nM]	IC50 (human CA-IX) [nM]	also measured
CN(CCN1CCOCC1)C(=O)c1nc(Cc2ccccc2)n(-c2ccc(S(N)(=O)=O)cc2F)n1 [Example A-1k, 1-[4-(aminosulfonyl)-2-fluorophenyl]-5-benzyl-N-methyl-N-(2-morpholin-4-ylethyl)-1H-1,2,4-triazole-3-carboxamide]	23	0.22	148		
CN(C)[C@H]1CCN(C(=O)c2nc(Cc3ccccc3)n(-c3ccc(S(N)(=O)=O)cc3F)n2)C1 [Example A-1m, 4-(5-benzyl-3-{[(3S)-3-(dimethylamino)pyrrolidin-1-yl]carbonyl}-1H-1,2,4-triazol-1-yl)-3-fluorobenzenesulfonamide]	21	0.2	429		
NS(=O)(=O)c1ccc(-n2ncnc2Cc2ccccc2)cc1 [Example L-1a, 4-(5-benzyl-1H-1,2,4-triazol-1-yl)benzenesulfonamide]				35.6	
CC(C)OC(=O)c1nc(Cc2ccccc2)n(-c2ccc(S(N)(=O)=O)cc2)n1 [Example P-1, Isopropyl 1-[4-(aminosulfonyl)phenyl]-5-benzyl-1H-1,2,4-triazole-3-carboxylate]	41	0.15	486		

Continued, in another order:

IC50 (CAI) [nM]	Kd (human CA-II [1]; read-out: Kd_CAII) [nM]	IC50 (human CA-IV; read-out: IC50_CAIV) [nM]	IC50 (human CA-IX) [nM]	SMILES	also measured
4610				Cc1cccc(Cc2nc(C)nn2-c2ccc(S(N)(=O)=O)c(F)c2F)c1 [Example Q-1, 2,3-Difluoro-4-[3-methyl-5-(3-methylbenzyl)-1H-1,2,4-triazol-1-yl]benzenesulfonamide]	% printed in column IC50—CAII (human CA-II [2]; 69 0.010 nM (so in the source)): 0% 69 0.010 nM; % printed in column IC50_CAIV (human CA-IV; @ 5 uM): 51% @ 5 uM
			53.3	COC[C@H](C)NC(=O)c1nc(Cc2ccccc2)n(-c2ccc(S(N)(=O)=O)cc2)n1 [Example R-21, 1-[4-(aminosulfonyl)phenyl]-5-benzyl-N-[(1S)-2-methoxy-1-methylethyl]-1H-124-triazole-3-carboxamide]	inhibition at 0.1 µM (human CA-II [2]; CA II Min dose 100 nM, read-out: CAII % Inh @ Min dose): 100%; Kd (human CA-II [1]; read-out: CA-II Kd): 0.09 nM; inhibition at 0.2 µM (human CA-IV; CA-IV Min dose 200 nM, read-out: CA-IV: % Inh @ Min dose): 53.6%; IC50 (human CA-IV; read-out: CA-IV IC50): 356 nM
			5.18	CN(Cc1cc(Cc2ccc(Cl)cc2)n(-c2ccc(S(N)(=O)=O)cc2)n1)C1CCCCC1 [QQ-10]	
			36.9	Cc1nc(Cc2cccc(F)c2)n(-c2ccc(S(N)(=O)=O)cc2)n1 [f-3a, 4-[5-(3-fluorobenzyl)-3-methyl-1H-1,2,4-triazol-1-yl]benzenesulfonamide]	
			8.11	COCc1nc(Cc2cccc(Br)c2)n(-c2ccc(S(N)(=O)=O)cc2)n1 [f-3g, 4-[5-(3-bromobenzyl)-3-(methoxymethyl)-1H-1,2,4-triazol-1-yl]benzenesulfonamide]	
		284	13.5	NS(=O)(=O)c1ccc(-n2nc(CO)cc2Cc2ccc(Cl)cc2)cc1 [qq-3a, 4-[5-(4-chlorobenzyl)-3-(hydroxymethyl)-1H-pyrazol-1-yl]benzenesulfonamide]	
